Measured values published in patent US20260273029A1, “DRY EYE TREATMENT” (Inoculus Ventures, LLC, priority 2022, published 2026).

What was measured:
[1] = tested on: Staphylococcus aureus biofilms; experiment: S. Aureus biofilm reduction in 96 well plate: 10 min treatment, crystal violet stain, optical density at 600 nm; assay type: cell-based, Staphylococcus aureus subsp. aureus Rosenbach (ATCC 29213); settings: for Reduction in Enzyme Effectiveness by preservative: 10 mg/mL α-amylase + preservative, FIG. 12A, 12B
Protocol: • Step 1. Place a new CuveTip on the Photopette • Step 2. Turn on the Photopette and ensure the bluetooth has connected to the iPad. • Step 3. Open the App and set the measurement to collect at 600 nm (use ecoli setting for brevity). • Step 4. Zero the Photopette in DI water, and clean the tip with a chemwipe. • Step 5. Aseptically transfer 100 ml of the TSB citrate media (TSBC) to a flask. • Step 6. Aseptically transfer the overnight culture of Staphylococcus aureus subsp. aureus Rosenbach (ATCC 29213) in Tryptic Soy Broth to the TSB citrate media (TSBC) using a pipet until the culture is diluted to A600 of 0.02 (~2×10^8 CFU/ml) measured with the Photopette. • Step 7. Remove a sterile 96 well plate from the sterile packaging in the hood and place on the table. • Step 8. Set an 8 channel pipet for […] and attach sterile tips. • Step 9. Plate the desired number of wells with […] of the diluted culture. • Step 10. Cover the well plate and incubate overnight for 18 hrs at 37° C.
Plate S. Aureus in all wells of a 96 tissue culture treated well plate. The well plate should incubate for 18 hrs at 37° C. before being assayed for biofilm formation.
Carefully tilt plate and pipet all liquid from the wells by inserting the pipet tips in the bottom corner of the wells to remove non-adherent cells without disturbing the biofilm grown on the bottom of the well.
Start a timer for 10 minutes when the first row is treated using an 8-channel pipette. Each row should be treated every 30 seconds making sure to gently release the composition in the corner of the well to not disturb the biofilm mechanically.
After 10 min all fluid should be removed row by row every 30 seconds starting with Row 1. The fluid must be removed with gentle pipetting, with the plate at an angle, with the pipette in the corner to remove non-adherent cells without disturbing the biofilm grown on the bottom of the well.
Add 50 μl of 0.1% crystal violet (CV) to stain adherent cells for all wells.
Carefully rinse all wells by submerging the plate in a DI water bath to remove all remaining crystal violet.
Dry the well plate and measure the optical density of the biofilms using a plate reader at 600 nm.
Repeat the steps outlined in 1.2 and 1.3 for scheduled testing days on days 7, 14, 21, 28, and 35. For each day of testing scheduled at days 7, 14, 21, 28, and 35 a well plate of biofilm should be prepared the day before.
The remaining biofilm density was assessed using a cell plate reader at 600 nm called an optical density 600 (OD600) measurement.
Staphylococcus aureus biofilms were grown in 96 well (Corning Falcon) cell culture treated plates using a TSB broth supplemented with yeast extract, glucose, and sodium citrate to induce biofilm formation and incubated for 18 hours.
Non-adherent cells were removed and the biofilms were treated with different solutions to test the ability to break down the Staph. aureus biofilms. Solutions with α-amylase were produced at 10 mg/mL using α-amylase from Aspergillus oryzae (Sigma-Aldrich Catalog #10065) ~30 U/mg.
After 10 minutes of incubation non-adherent cells were removed and the residual biofilms were stained with crystal violet. The density of the remaining biofilm was measured at 600 nm using a Byonoy Absorbance 96 plate reader.
Staphylococcus aureus biofilms were grown in 96 well (Crnming Falcon) cell culture treated plates using a TSB broth supplemented with yeast extract, glucose, and sodium citrate to induce biofilm formation and incubated for 18 hours. […]

biofilm on the eyelid = experiment: Treatment of a human subject (Example 13): eyelid photographs and reported symptoms; assay type: in vivo; settings: daily Avenova
Excerpt: All images are from the same subject at the Watson Dry Eye Center in Raleigh NC at the specified times. The images were reviewed retrospectively to determine if the visual signs of biofilm on the eyelid were removed by a composition of α-amylase from Aspergillus oryzae and 0.01% hypochlorous acid. It should be noted that from May 23, 2018-Nov. 20, 2020 the patient cleaned their eyes with just 0.01% hypochlorous acid in saline two times a day. After this, the patient used the novel composition of α-amylase from Aspergillus oryzae and 0.01% hypochlorous acid. The first composition was made from powdered α-amylase from Aspergillus oryzae and liquid 0.01% hypochlorous acid in saline right before application to the eyelid with a cotton swab. […] Dosage information is written on the timeline below.
FIG. 1A and FIG. 1B are photographs depicting two different areas of an eye of the subject afflicted with blocked meibomian glands, shiny biofilm at the base of eyelashes, shine biofilm on eyelashes, and lash growth misdirection taken on May 23, 2018 (time 0). After the photos were taken, the subject was treated with Blephex and Intense Pulse Light Therapy for biofilm removal treating inflammation.
Subject received a subsequent treatment session on Dec. 4, 2018. FIG. 2A and FIG. 2B are photographs depicting the two different areas of the eye of the subject on Dec. […]

## OCl [0.01% hypochlorous acid, hypochlorous acid]
[1]; 0.01% hypochlorous acid with 10 mg/ml α-amylase and cofactors, FIG. 13
  inhibition of biofilm removal by the enzyme: did not inhibit biofilm removal by the enzyme
[1]; without α-amylase, 10 min
  biofilm reduction by the additive on its own: slightly reduce the biofilm
Biofilm on the eyelid; time 2 (June 18 2019), FIG. 3A
  biofilm at the eyelashes: the biofilm continues to grow at the base of the eyelashes
Biofilm on the eyelid; time 3 (October 15 2019), FIGS. 4A and 4B
  biofilm at the eyelashes and eyelid: the shine biofilm remains at the eyelashes and inside the eyelid

## OC[C@H]1O[C@H](O[C@H]2O[C@H](CO)[C@@H](O)[C@H](O)[C@H]2O)[C@H](O)[C@@H](O)[C@@H]1O [Trehalose]
[1]; 3%, 6.8%, and 8% Trehalose solutions, α=0.05, FIG. 17
  differences in the enzyme activity (break down of biofilms) between concentrations: no significant differences

## benzalkonium chloride [BAK (benzalkonium chloride) 0.01%]
[1]; 10 min
  Reduction in Enzyme Effectiveness by preservative: No Reduction in Enzyme Effectiveness

## sodium perborate [GenAqua/Dequest (sodium perborate)]
[1]; 10 min
  Reduction in Enzyme Effectiveness by preservative: No Reduction in Enzyme Effectiveness
